Laboratory results taken from patent publication EP4810052A2, “HCRHR2 SELECTIVE POLYPEPTIDES” (Gubra A/S, priority 2023, dated 2026).
Where two headings read alike, the source gives them in different places. Starred links: 1 amine or outer side, 2 acyl side, 3 side chain; linkers in the order of their positions; H or OH if unused. Non-standard residues stand in square brackets, D forms with d. Residues, ends and D or L forms follow the SMILES beside them. Groups on a side chain read outwards from the residue. *: point of attachment. C20 diacid = O=C(O)CCCCCCCCCCCCCCCCCCC(=O)*; Pro(cis-4-F) = O=C(O)[C@@H]1C[C@H](F)CN1; γGlu = O=C(O)[C@H](CCC(=O)[*:2])N[*:1]; Nle = CCCC[C@H](N)C(=O)O; AEEA = NCCOCCOCC(=O)O

Columns and labels:
hCRHR2 = target: T1, hCRHR2 (Homo sapiens, UniProt Q13324); experiment: HTRF cAMP assay, determination of hCRHR2 potency (peptide libraries 5 conc., purified peptides 11 conc.); format: cell-based
T1 sequence (Q13324 1-411): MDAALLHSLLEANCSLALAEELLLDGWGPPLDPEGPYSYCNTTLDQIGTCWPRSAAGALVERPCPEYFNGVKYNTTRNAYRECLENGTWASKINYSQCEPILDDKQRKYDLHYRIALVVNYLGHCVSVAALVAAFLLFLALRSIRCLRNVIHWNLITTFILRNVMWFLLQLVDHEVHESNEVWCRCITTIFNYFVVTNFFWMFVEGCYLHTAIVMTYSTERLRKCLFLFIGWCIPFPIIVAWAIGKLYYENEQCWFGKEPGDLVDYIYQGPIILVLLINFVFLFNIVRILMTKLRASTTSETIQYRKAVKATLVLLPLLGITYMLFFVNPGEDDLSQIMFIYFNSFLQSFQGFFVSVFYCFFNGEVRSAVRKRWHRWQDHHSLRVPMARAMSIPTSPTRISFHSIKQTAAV
In short: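 Agonist peptides are added to suspended, freshly thawed CHO-K1 cells that stably carry the human receptor. Intracellular cAMP competes with d2-cAMP for a cryptate-tagged antibody, lowering the FRET signal. A variable-slope sigmoid curve is fitted to obtain EC50.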

hCRHR1 = target: T2, hCRHR1 (Homo sapiens, UniProt P34998); experiment: HTRF cAMP assay, determination of hCRHR1 potency (peptide libraries 5 conc., purified peptides 11 conc.); format: cell-based
T2 sequence (P34998 24-415): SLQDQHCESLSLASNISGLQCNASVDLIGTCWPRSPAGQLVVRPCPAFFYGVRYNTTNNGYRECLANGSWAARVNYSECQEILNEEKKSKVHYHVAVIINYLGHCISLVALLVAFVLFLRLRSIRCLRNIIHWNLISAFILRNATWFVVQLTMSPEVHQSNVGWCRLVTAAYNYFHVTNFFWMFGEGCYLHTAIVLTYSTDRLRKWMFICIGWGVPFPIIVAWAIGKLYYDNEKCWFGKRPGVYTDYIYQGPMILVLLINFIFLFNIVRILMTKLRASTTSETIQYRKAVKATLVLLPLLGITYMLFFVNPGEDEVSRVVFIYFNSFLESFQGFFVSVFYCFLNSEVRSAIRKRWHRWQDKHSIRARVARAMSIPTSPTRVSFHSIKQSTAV
In short: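 CHO-K1 cells stably expressing human CRHR1, thawed from frozen stocks just before use, were stimulated in suspension with agonist peptides. cAMP was measured by HTRF competitive immunoassay (cryptate anti-cAMP antibody vs d2-cAMP).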

[1] = library peptides, matched molecular pairs L vs Nle in position X^38, read-out: Potency hCRHR2 pEC50 (converted)
[2] = library peptides, matched molecular pairs L vs Nle in position X^38, read-out: Potency hCRHR1 pEC50 (converted)

EC50 (hCRHR2; [1]) [nM] | EC50 (hCRHR1; [2]) [nM] | EC50 (hCRHR2; Table 3, matched molecular pairs X^38 L vs Nle, peptide library of Example 4, read-out: hCRHR2 pEC50 (converted)) [nM] | EC50 (hCRHR1; Table 3, matched molecular pairs X^38 L vs Nle, peptide library of Example 4, read-out: hCRHR1 pEC50 (converted)) [nM] | Structure (SMILES)
0.2 | 398000 | – | – | CCCC[C@H](NC(=O)[C@@H](NC(=O)[C@H](CCC(=O)O)NC(=O)[C@H](C)NC(=O)[C@H](CC(N)=O)NC(=O)[C@@H](NC(=O)[C@H](CCCCNC(=O)COCCOCCNC(=O)COCCOCCNC(=O)CC[C@H](NC(=O)CC[C@H](NC(=O)CCCCCCCCCCCCCCCCCCC(=O)O)C(=O)O)C(=O)O)NC(=O)[C@H](C)NC(=O)[C@H](CCC(N)=O)NC(=O)[C@H](CCC(=O)O)NC(=O)[C@H](CCCNC(=N)N)NC(=O)[C@H](C)NC(=O)[C@H](C)NC(=O)[C@H](CCCNC(=N)N)NC(=O)[C@H](C)NC(=O)[C@H](CCCNC(=N)N)NC(=O)[C@H](C)NC(=O)[C@H](CCC(N)=O)NC(=O)[C@@H](NC(=O)[C@H](CC(C)C)NC(=O)[C@H](CC(C)C)NC(=O)[C@@H](NC(=O)[C@H](CCC(N)=O)NC(=O)[C@H](CC(C)C)NC(=O)[C@H](CC(C)C)NC(=O)CNC(=O)[C@@H](NC(=O)[C@@H]1C[C@H](F)CN1C(=O)[C@@H](NC(=O)[C@H](CC(=O)O)NC(=O)[C@H](CC(C)C)NC(=O)[C@H](CO)NC(=O)[C@H](CC(C)C)NC(=O)[C@@H](NC(=O)[C@@H](N)[C@@H](C)CC)C(C)C)C(C)C)[C@@H](C)CC)[C@@H](C)CC)[C@@H](C)O)[C@@H](C)O)[C@@H](C)CC)C(=O)N[C@@H](C)C(=O)N[C@@H](CCC(=O)O)C(=O)N[C@H](C(N)=O)C(C)C [compound 81] (H-IVLSLDV[Pro(cis-4-F)]IGLLQILLTQARARAAREQAK([AEEA-AEEA-γGlu-γGlu-C20 diacid])TNAEI[Nle]AEV-NH2)
0.794 | 158000 | – | – | CCCC[C@H](NC(=O)[C@@H](NC(=O)[C@H](CCC(=O)O)NC(=O)[C@H](C)NC(=O)[C@H](CC(N)=O)NC(=O)[C@@H](NC(=O)[C@H](CCCCNC(=O)COCCOCCNC(=O)COCCOCCNC(=O)CC[C@H](NC(=O)CC[C@H](NC(=O)CCCCCCCCCCCCCCCCCCC(=O)O)C(=O)O)C(=O)O)NC(=O)[C@H](C)NC(=O)[C@H](CCC(=O)O)NC(=O)[C@H](CCC(=O)O)NC(=O)[C@H](CCCNC(=N)N)NC(=O)[C@H](C)NC(=O)[C@H](C)NC(=O)[C@H](CCCNC(=N)N)NC(=O)[C@H](C)NC(=O)[C@H](CCCNC(=N)N)NC(=O)[C@H](C)NC(=O)[C@H](CCC(N)=O)NC(=O)[C@H](CCC(=O)O)NC(=O)[C@H](CC(C)C)NC(=O)[C@H](CC(C)C)NC(=O)[C@@H](NC(=O)[C@H](CCC(N)=O)NC(=O)[C@H](CC(C)C)NC(=O)[C@H](CC(C)C)NC(=O)CNC(=O)[C@@H](NC(=O)[C@@H]1CCCN1C(=O)[C@@H](NC(=O)[C@H](CC(=O)O)NC(=O)[C@H](CC(C)C)NC(=O)[C@H](CO)NC(=O)[C@H](CC(C)C)NC(=O)[C@@H](NC(=O)[C@@H](N)[C@@H](C)CC)C(C)C)C(C)C)[C@@H](C)CC)[C@@H](C)CC)[C@@H](C)O)[C@@H](C)CC)C(=O)N[C@@H](C)C(=O)N[C@@H](CCC(=O)O)C(=O)N[C@H](C(N)=O)[C@@H](C)CC [compound 75] (H-IVLSLDVPIGLLQILLEQARARAAREEAK([AEEA-AEEA-γGlu-γGlu-C20 diacid])TNAEI[Nle]AEI-NH2)

The remaining lines, values behind:

Structure (SMILES) | EC50 (hCRHR2; [1]) [nM] | EC50 (hCRHR1; [2]) [nM] | EC50 (hCRHR2; Table 3, matched molecular pairs X^38 L vs Nle, peptide library of Example 4, read-out: hCRHR2 pEC50 (converted)) [nM] | EC50 (hCRHR1; Table 3, matched molecular pairs X^38 L vs Nle, peptide library of Example 4, read-out: hCRHR1 pEC50 (converted)) [nM]
CC[C@H](C)[C@H](N)C(=O)N[C@H](C(=O)N[C@@H](CC(C)C)C(=O)N[C@@H](CO)C(=O)N[C@@H](CC(C)C)C(=O)N[C@@H](CC(=O)O)C(=O)N[C@H](C(=O)N1CCC[C@H]1C(=O)N[C@H](C(=O)NCC(=O)N[C@@H](CC(C)C)C(=O)N[C@@H](CC(C)C)C(=O)N[C@@H](CCC(N)=O)C(=O)N[C@H](C(=O)N[C@@H](CC(C)C)C(=O)N[C@@H](CC(C)C)C(=O)N[C@@H](CCC(=O)O)C(=O)N[C@@H](CCC(N)=O)C(=O)N[C@@H](C)C(=O)N[C@@H](CCCNC(=N)N)C(=O)N[C@@H](C)C(=O)N[C@@H](CCCNC(=N)N)C(=O)N[C@@H](CCC(N)=O)C(=O)N[C@@H](C)C(=O)N[C@@H](CCCNC(=N)N)C(=O)N[C@@H](CCC(=O)O)C(=O)N[C@@H](CCC(N)=O)C(=O)N[C@@H](C)C(=O)N[C@@H](CCCCNC(=O)COCCOCCNC(=O)COCCOCCNC(=O)CC[C@H](NC(=O)CC[C@H](NC(=O)CCCCCCCCCCCCCCCCCCC(=O)O)C(=O)O)C(=O)O)C(=O)N[C@H](C(=O)N[C@@H](CC(N)=O)C(=O)N[C@@H](C)C(=O)N[C@@H](CCC(=O)O)C(=O)N[C@H](C(=O)N[C@@H](CC(C)C)C(=O)N[C@@H](C)C(=O)N[C@@H](CCC(=O)O)C(=O)N[C@H](C(N)=O)C(C)C)[C@@H](C)CC)[C@@H](C)O)[C@@H](C)CC)[C@@H](C)CC)C(C)C)C(C)C [compound 52] (H-IVLSLDVPIGLLQILLEQARARQAREQAK([AEEA-AEEA-γGlu-γGlu-C20 diacid])TNAEILAEV-NH2) | 0.631 | 1580 | – | –
CCCC[C@H](NC(=O)[C@@H](NC(=O)[C@H](CCC(=O)O)NC(=O)[C@H](C)NC(=O)[C@H](CC(N)=O)NC(=O)[C@@H](NC(=O)[C@H](CCCCNC(=O)COCCOCCNC(=O)COCCOCCNC(=O)CC[C@H](NC(=O)CC[C@H](NC(=O)CCCCCCCCCCCCCCCCCCC(=O)O)C(=O)O)C(=O)O)NC(=O)[C@H](C)NC(=O)[C@H](CCC(=O)O)NC(=O)[C@H](CCC(=O)O)NC(=O)[C@H](CCCNC(=N)N)NC(=O)[C@H](CCC(N)=O)NC(=O)[C@H](C)NC(=O)[C@H](CCCNC(=N)N)NC(=O)[C@H](C)NC(=O)[C@H](CCCNC(=N)N)NC(=O)[C@H](C)NC(=O)[C@H](CCC(N)=O)NC(=O)[C@H](CCC(=O)O)NC(=O)[C@H](CC(C)C)NC(=O)[C@H](CC(C)C)NC(=O)[C@@H](NC(=O)[C@H](CCC(N)=O)NC(=O)[C@H](CC(C)C)NC(=O)[C@H](CC(C)C)NC(=O)CNC(=O)[C@@H](NC(=O)[C@@H]1CCCN1C(=O)[C@@H](NC(=O)[C@H](CC(=O)O)NC(=O)[C@H](CC(C)C)NC(=O)[C@H](CO)NC(=O)[C@H](CC(C)C)NC(=O)[C@@H](NC(=O)[C@@H](N)[C@@H](C)CC)C(C)C)C(C)C)[C@@H](C)CC)[C@@H](C)CC)[C@@H](C)O)[C@@H](C)CC)C(=O)N[C@@H](C)C(=O)N[C@@H](CCC(=O)O)C(=O)N[C@H](C(N)=O)C(C)C [SEQ ID NO: 34] (H-IVLSLDVPIGLLQILLEQARARAQREEAK([AEEA-AEEA-γGlu-γGlu-C20 diacid])TNAEI[Nle]AEV-NH2) | – | – | 0.251 | 100000
CC[C@H](C)[C@H](N)C(=O)N[C@H](C(=O)N[C@@H](CC(C)C)C(=O)N[C@@H](CO)C(=O)N[C@@H](CC(C)C)C(=O)N[C@@H](CC(=O)O)C(=O)N[C@H](C(=O)N1CCC[C@H]1C(=O)N[C@H](C(=O)NCC(=O)N[C@@H](CC(C)C)C(=O)N[C@@H](CC(C)C)C(=O)N[C@@H](CCC(N)=O)C(=O)N[C@H](C(=O)N[C@@H](CC(C)C)C(=O)N[C@@H](CC(C)C)C(=O)N[C@@H](CCC(=O)O)C(=O)N[C@@H](CCC(N)=O)C(=O)N[C@@H](C)C(=O)N[C@@H](CCCNC(=N)N)C(=O)N[C@@H](C)C(=O)N[C@@H](CCCNC(=N)N)C(=O)N[C@@H](C)C(=O)N[C@@H](C)C(=O)N[C@@H](CCCNC(=N)N)C(=O)N[C@@H](CCC(=O)O)C(=O)N[C@@H](CCC(N)=O)C(=O)N[C@@H](C)C(=O)N[C@@H](CCCCNC(=O)COCCOCCNC(=O)COCCOCCNC(=O)CC[C@H](NC(=O)CC[C@H](NC(=O)CCCCCCCCCCCCCCCCCCC(=O)O)C(=O)O)C(=O)O)C(=O)N[C@H](C(=O)N[C@@H](CC(N)=O)C(=O)N[C@@H](C)C(=O)N[C@@H](CCC(=O)O)C(=O)N[C@H](C(=O)N[C@@H](CC(C)C)C(=O)N[C@@H](C)C(=O)N[C@@H](CCC(=O)O)C(=O)N[C@H](C(N)=O)[C@@H](C)CC)[C@@H](C)CC)[C@@H](C)O)[C@@H](C)CC)[C@@H](C)CC)C(C)C)C(C)C [compound 68] (H-IVLSLDVPIGLLQILLEQARARAAREQAK([AEEA-AEEA-γGlu-γGlu-C20 diacid])TNAEILAEI-NH2) | 0.251 | 63100 | – | –
